# Source: the supplement of paper PMC10307832
# Compound: CN1CCN(CC1)C2=CC(=C(C=C2)NC3=NC=C4C(=N3)N(C5=CC=CC=C5C(=O)N4C)C)OC [XMD8-85] + COc1cccc2cc(-c3nc([C@H]4CC[C@H](C(=O)O)CC4)n4ncnc(N)c34)[nH]c12 [OSI-027] (partner 0.5 µM)
# Assay: relative viability (nuclei count vs DMSO), 5 days (fraction); higher = more cells survive
# Conditions: first compound 8 µM
# Method in brief: (§1)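 One day after seeding in 1536-well plates, lung cancer cell lines were dosed by pin tool. Dosing was either single-drug or a fixed anchor-drug dose plus five library-drug doses (not always all listed) in √10 steps. After 5 days, nuclei were stained in one fix-and-stain step and counted on 4× images, and relative viability is the nuclei count of treated wells over that of vehicle wells, given as the median of duplicate plates.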
row,Cell Line,relative viability
1,NCI-H2170,0.613

# Compound: CN1CCN(CC1)C2=CC(=C(C=C2)NC3=NC=C4C(=N3)N(C5=CC=CC=C5C(=O)N4C)C)OC [XMD8-85] + N=C(N)NC(=N)NCCc1ccccc1 [Phenformin] (partner 250 µM)
# Assay: as above
# Conditions: first compound 0.08 µM
# Method in brief: as §1
row,Cell Line,relative viability
1,NCI-H460,0.377
2,NCI-H520,0.574
3,NCI-H522,0.664
4,NCI-H647,0.258
5,NCI-H661,0.292
6,NCI-H727,0.503
7,NCI-H838,0.528
8,NCI-H1355,0.417
9,NCI-H1395,0.483
10,NCI-H1650,0.411
11,NCI-H1651,0.349
12,NCI-H1666,0.578
13,NCI-H1734,0.397
14,NCI-H1755,0.608
15,NCI-H1793,0.402
16,NCI-H1915,0.359
17,NCI-H1944,0.186
18,NCI-H1975,0.402
19,NCI-H1993,0.565
20,NCI-H2009,0.496
21,NCI-H2023,0.347
22,NCI-H2085,0.805
23,NCI-H2087,0.495
24,NCI-H2126,0.524
25,NCI-H2170,0.4

# Same assay, conditions: first compound 0.253 µM
row,Cell Line,relative viability
1,NCI-H460,0.59
2,NCI-H520,0.6
3,NCI-H522,0.697
4,NCI-H647,0.522
5,NCI-H650,0.44
6,NCI-H661,0.287
7,NCI-H727,0.547
8,NCI-H838,0.553
9,NCI-H1355,0.409
10,NCI-H1395,0.421
11,NCI-H1437,0.299
12,NCI-H1650,0.449
13,NCI-H1651,0.312
14,NCI-H1666,0.601
15,NCI-H1734,0.331
16,NCI-H1755,0.65
17,NCI-H1793,0.409
18,NCI-H1915,0.349
19,NCI-H1944,0.195
20,NCI-H1975,0.409
21,NCI-H1993,0.64
22,NCI-H2009,0.504
23,NCI-H2023,0.398
24,NCI-H2085,0.734
25,NCI-H2087,0.441
26,NCI-H2126,0.528
27,NCI-H2170,0.431

# Same assay, conditions: first compound 0.8 µM
row,Cell Line,relative viability
1,NCI-H460,0.545
2,NCI-H520,0.557
3,NCI-H522,0.338
4,NCI-H647,0.528
5,NCI-H650,0.439
6,NCI-H661,0.278
7,NCI-H727,0.523
8,NCI-H838,0.604
9,NCI-H1355,0.422
10,NCI-H1395,0.447
11,NCI-H1437,0.338
12,NCI-H1650,0.401
13,NCI-H1651,0.265
14,NCI-H1666,0.574
15,NCI-H1734,0.369
16,NCI-H1755,0.429
17,NCI-H1793,0.38
18,NCI-H1915,0.377
19,NCI-H1944,0.228
20,NCI-H1975,0.446
21,NCI-H1993,0.512
22,NCI-H2009,0.496
23,NCI-H2023,0.422
24,NCI-H2085,0.752
25,NCI-H2087,0.562
26,NCI-H2126,0.525
27,NCI-H2170,0.447

# Same assay, conditions: first compound 2.53 µM
row,Cell Line,relative viability
1,NCI-H460,0.578
2,NCI-H520,0.543
3,NCI-H522,0.367
4,NCI-H647,0.465
5,NCI-H650,0.436
6,NCI-H661,0.276
7,NCI-H727,0.524
8,NCI-H838,0.617
9,NCI-H1355,0.437
10,NCI-H1395,0.414
11,NCI-H1437,0.329
12,NCI-H1650,0.36
13,NCI-H1651,0.366
14,NCI-H1666,0.567
15,NCI-H1734,0.382
16,NCI-H1755,0.581
17,NCI-H1793,0.375
18,NCI-H1915,0.354
19,NCI-H1944,0.207
20,NCI-H1975,0.464
21,NCI-H1993,0.436
22,NCI-H2009,0.42
23,NCI-H2023,0.355
24,NCI-H2085,0.626
25,NCI-H2087,0.396
26,NCI-H2126,0.543
27,NCI-H2170,0.41

# Same assay, conditions: first compound 8 µM
row,Cell Line,relative viability
1,NCI-H460,0.1
2,NCI-H520,0.446
3,NCI-H522,0.67
4,NCI-H647,0.307
5,NCI-H650,0.306
6,NCI-H661,0.287
7,NCI-H727,0.456
8,NCI-H838,0.283
9,NCI-H1355,0.408
10,NCI-H1395,0.409
11,NCI-H1437,0.268
12,NCI-H1650,0.178
13,NCI-H1651,0.298
14,NCI-H1666,0.576
15,NCI-H1734,0.348
16,NCI-H1755,0.495
17,NCI-H1793,0.317
18,NCI-H1915,0.348
19,NCI-H1944,0.151
20,NCI-H1975,0.312
21,NCI-H1993,0.495
22,NCI-H2009,0.306
23,NCI-H2023,0.327
24,NCI-H2085,0.516
25,NCI-H2087,0.389
26,NCI-H2126,0.455
27,NCI-H2170,0.366

# Compound: O=C(O)C(Cc1ccccc1[N+](=O)[O-])=NNc1nc(-c2ccc(Cl)c(Cl)c2)cs1 (mixture of isomers) [4EGI-1] + N=C(N)NC(=N)NCCc1ccccc1 [Phenformin] (partner 250 µM)
# Assay: as above
# Conditions: first compound 0.5 µM
# Method in brief: as §1
row,Cell Line,relative viability
1,NCI-H460,0.549
2,NCI-H520,0.866
3,NCI-H522,0.641
4,NCI-H647,0.562
5,NCI-H650,0.455
6,NCI-H661,0.274
7,NCI-H727,0.648
8,NCI-H838,0.605
9,NCI-H1355,0.469
10,NCI-H1395,0.455
11,NCI-H1437,0.272
12,NCI-H1650,0.456
13,NCI-H1651,0.345
14,NCI-H1666,0.537
15,NCI-H1734,0.477
16,NCI-H1755,0.699
17,NCI-H1793,0.375
18,NCI-H1915,0.367
19,NCI-H1944,0.206
20,NCI-H1975,0.444
21,NCI-H1993,0.536
22,NCI-H2009,0.55
23,NCI-H2023,0.503
24,NCI-H2085,0.8
25,NCI-H2087,0.498
26,NCI-H2126,0.553
27,NCI-H2170,0.419

# Same assay, conditions: first compound 1.581 µM
row,Cell Line,relative viability
1,NCI-H520,0.589
2,NCI-H522,0.548
3,NCI-H661,0.267
4,NCI-H727,0.518
5,NCI-H1355,0.439
6,NCI-H1395,0.362
7,NCI-H1437,0.298
8,NCI-H1651,0.295
9,NCI-H1666,0.554
10,NCI-H1734,0.341
11,NCI-H1755,0.636
12,NCI-H1793,0.47
13,NCI-H1915,0.35
14,NCI-H1975,0.356
15,NCI-H1993,0.452
16,NCI-H2009,0.494
17,NCI-H2085,0.795
18,NCI-H2087,0.468
19,NCI-H2170,0.452

# Same assay, conditions: first compound 5 µM
row,Cell Line,relative viability
1,NCI-H460,0.593
2,NCI-H520,0.703
3,NCI-H522,0.676
4,NCI-H647,0.819
5,NCI-H650,0.451
6,NCI-H661,0.297
7,NCI-H727,0.511
8,NCI-H838,0.623
9,NCI-H1355,0.45
10,NCI-H1395,0.508
11,NCI-H1437,0.305
12,NCI-H1650,0.401
13,NCI-H1651,0.35
14,NCI-H1666,0.563
15,NCI-H1734,0.43
16,NCI-H1755,0.646
17,NCI-H1793,0.418
18,NCI-H1915,0.374
19,NCI-H1944,0.207
20,NCI-H1975,0.407
21,NCI-H1993,0.481
22,NCI-H2009,0.528
23,NCI-H2023,0.425
24,NCI-H2085,0.823
25,NCI-H2087,0.435
26,NCI-H2126,0.569
27,NCI-H2170,0.426

# Same assay, conditions: first compound 15.81 µM
row,Cell Line,relative viability
1,NCI-H460,0.243
2,NCI-H520,0.669
3,NCI-H522,0.626
4,NCI-H647,0.419
5,NCI-H650,0.47
6,NCI-H661,0.274
7,NCI-H727,0.572
8,NCI-H838,0.487
9,NCI-H1355,0.413
10,NCI-H1395,0.399
11,NCI-H1437,0.262
12,NCI-H1650,0.284
13,NCI-H1651,0.267
14,NCI-H1666,0.51
15,NCI-H1734,0.352
16,NCI-H1755,0.625
17,NCI-H1793,0.367
18,NCI-H1915,0.343
19,NCI-H1944,0.185
20,NCI-H1975,0.442
21,NCI-H1993,0.631
22,NCI-H2009,0.366
23,NCI-H2023,0.281
24,NCI-H2085,0.536
25,NCI-H2087,0.394
26,NCI-H2126,0.488
27,NCI-H2170,0.333

# Same assay, conditions: first compound 50 µM
row,Cell Line,relative viability
1,NCI-H460,0.0399
2,NCI-H520,0.191
3,NCI-H522,0.551
4,NCI-H647,0.141
5,NCI-H650,0.31
6,NCI-H661,0.243
7,NCI-H727,0.332
8,NCI-H838,0.153
9,NCI-H1355,0.33
10,NCI-H1395,0.34
11,NCI-H1437,0.214
12,NCI-H1650,0.206
13,NCI-H1651,0.231
14,NCI-H1666,0.398
15,NCI-H1734,0.256
16,NCI-H1755,0.397
17,NCI-H1793,0.297
18,NCI-H1915,0.233
19,NCI-H1944,0.191
20,NCI-H1975,0.361
21,NCI-H1993,0.5
22,NCI-H2009,0.18
23,NCI-H2023,0.117
24,NCI-H2085,0.404
25,NCI-H2087,0.193
26,NCI-H2126,0.463
27,NCI-H2170,0.274
